Experimental data: patent US9777017B2, “Tricyclic fused thiophene derivatives as JAK inhibitors” (Incyte Corporation, priority 2012, dated 2017)
pIC50: −log10 of the molar value.

How the values were obtained:
Type in all cases: biochemical
[1] = molecular target: human JAK2 (Homo sapiens (Human), UniProt O60674); experiment: In vitro JAK kinase assay (HTRF, phosphorylation of a biotinylated peptide), JAK2; set-up: key to JAK2 IC50 (nM): +indicates an IC50 of ≦100 nM; ++indicates an IC50 of ≦1000 nM; +++indicates an IC50 of ≦2000 nM; ++++indicates an IC50 of >2000 nM; +++++indicates that the IC50 was greater than the highest concentration tested; settings: 1 mM ATP
Sequence of human JAK2 (O60674 828-1132): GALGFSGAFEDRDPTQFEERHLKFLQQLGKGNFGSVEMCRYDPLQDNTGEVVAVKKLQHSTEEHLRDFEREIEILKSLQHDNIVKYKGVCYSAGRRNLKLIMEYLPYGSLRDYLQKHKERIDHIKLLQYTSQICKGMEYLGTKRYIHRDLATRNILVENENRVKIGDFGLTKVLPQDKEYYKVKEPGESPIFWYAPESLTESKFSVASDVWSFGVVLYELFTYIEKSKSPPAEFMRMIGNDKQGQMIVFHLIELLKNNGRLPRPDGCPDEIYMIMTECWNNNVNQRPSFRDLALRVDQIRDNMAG
How it was run: (§1)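 Baculovirus-expressed catalytic domains (JAK1 a.a. 837-1142, JAK2 a.a. 828-1132) phosphorylate 500 nM biotinylated peptide at 1 mM ATP, Tris pH 7.8, 1 h at room temperature. EDTA stop and HTRF detection with Eu-Py20/SA-APC; IC50 values derived.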

[2] = molecular target: human JAK1 (Homo sapiens, UniProt P23458); experiment: In vitro JAK kinase assay (HTRF, phosphorylation of a biotinylated peptide), JAK1; settings: 1 mM ATP
How it was run: as §1

[3] = test system: human JAK1; experiment: as above; settings: ratio of IC50s, 1 mM ATP
How it was run: as §1

JAK2 IC50 (nM) [1]	pIC50 [2]	JAK2/JAK1 [3]	Compound	pIC50 [1]
	≥ 7.00	>10	COC(=O)NC[C@H]1CC[C@H](n2c(CC#N)nc3cnc4ccsc4c32)CC1 [Example 86, Methyl ({trans-4-[2-(cyanomethyl)-1H-imidazo[4,5-d]thieno[3,2-b]pyridin-1-yl]cyclohexyl}methyl)carbamate]	≥ 6.00
	≥ 7.00	>10	CCOC(=O)NC[C@H]1CC[C@H](n2c(CC#N)nc3cnc4ccsc4c32)CC1 [Example 87, Ethyl ({trans-4-[2-(cyanomethyl)-1H-imidazo[4,5-d]thieno[3,2-b]pyridin-1-yl]cyclohexyl}methyl)carbamate]	≥ 6.00
+++++	≥ 7.00	>10	CC(C)OC(=O)NC[C@H]1CC[C@H](n2c(CC#N)nc3cnc4ccsc4c32)CC1 [Example 88, Isopropyl ({trans-4-[2-(cyanomethyl)-1H-imidazo[4,5-d]thieno[3,2-b]pyridin-1-yl]cyclohexyl}methyl)carbamate]	
	≥ 7.00	>10	CCC(=O)NC[C@H]1CC[C@H](n2c(CC#N)nc3cnc4ccsc4c32)CC1 [Example 89, N-({trans-4-[2-(Cyanomethyl)-1H-imidazo[4,5-d]thieno[3,2-b]pyridin-1-yl]cyclohexyl}methyl)propanamide]	< 5.70
	≥ 7.00	>10	N#CCc1nc2cnc3ccsc3c2n1[C@H]1CC[C@H](CC#N)CC1 [Example 90, {1-[trans-4-(Cyanomethyl)cyclohexyl]-1H-imidazo[4,5-d]thieno[3,2-b]pyridin-2-yl}acetonitrile]	≥ 6.00

Further lines, the compound ahead of its results:

Compound	JAK2 IC50 (nM) [1]	pIC50 [2]	JAK2/JAK1 [3]	pIC50 [1]
C[C@@H](O)c1nc2cnc3ccsc3c2n1[C@H]1CC[C@H](CNC(=O)OC2CCOC2)CC1 (stereo partly drawn) [Example 85, Tetrahydrofuran-3-yl [(trans-4-{2-[(1R)-1-hydroxyethyl]-1H-imidazo[4,5-d]thieno[3,2-b]pyridin-1-yl}cyclohexyl)methyl]carbamate]	+++++	≥ 7.00	>10	
N#CC[C@H]1CC[C@H](n2c(CO)nc3cnc4ccsc4c32)CO1 [Example 91, {(2R,5S)-5-[2-(Hydroxymethyl)-1H-imidazo[4,5-b]thieno[3,2-b]pyridin-1-yl]tetrahydro-2H-pyran-2-yl}acetonitrile]		≥ 7.00	>10	≥ 6.00
((1R,2R,4S)-2-Hydroxy-4-{2-[(1R)-1-hydroxyethyl]-1H-imidazo[4,5-d]thieno[3,2-b]pyridin-1-yl}cyclohexyl)acetonitrile and ((1S,2S,4R)-2-hydroxy-4-{2-[(1R)-1-hydroxyethyl]-1H-imidazo[4,5-d]thieno[3,2-b]pyridin-1-yl}cyclohexyl)acetonitrile [36 (first peak)]		≥ 7.00	>10	< 5.70
((1R,2R,4S)-2-Hydroxy-4-{2-[(1R)-1-hydroxyethyl]-1H-imidazo[4,5-d]thieno[3,2-b]pyridin-1-yl}cyclohexyl)acetonitrile and ((1S,2S,4R)-2-hydroxy-4-{2-[(1R)-1-hydroxyethyl]-1H-imidazo[4,5-d]thieno[3,2-b]pyridin-1-yl}cyclohexyl)acetonitrile [36 (second peak)]		≥ 7.00	>10	≥ 6.00
((1R,2S,4S)-2-Hydroxy-4-{2-[(1R)-1-hydroxyethyl]-1H-imidazo[4,5-d]thieno[3,2-b]pyridin-1-yl}cyclohexyl)acetonitrile trifluoacetate and ((1S,2R,4R)-2-hydroxy-4-{2-[(1R)-1-hydroxyethyl]-1H-imidazo[4,5-d]thieno[3,2-b]pyridin-1-yl}cyclohexyl)acetonitrile trifluoacetate [37 (first peak)]	+++++	≥ 6.00	>10	
((1R,2S,4S)-2-Hydroxy-4-{2-[(1R)-1-hydroxyethyl]-1H-imidazo[4,5-d]thieno[3,2-b]pyridin-1-yl}cyclohexyl)acetonitrile trifluoacetate and ((1S,2R,4R)-2-hydroxy-4-{2-[(1R)-1-hydroxyethyl]-1H-imidazo[4,5-d]thieno[3,2-b]pyridin-1-yl}cyclohexyl)acetonitrile trifluoacetate [37 (second peak)]		≥ 7.00	>10	≥ 6.00
[(1R,2S,4S)-4-(2-Ethyl-1H-imidazo[4,5-d]thieno[3,2-b]pyridin-1-yl)-2-hydroxycyclohexyl]acetonitrile and [(1S,2R,4R)-4-(2-ethyl-1H-imidazo[4,5-d]thieno[3,2-b]pyridin-1-yl)-2-hydroxycyclohexyl]acetonitrile [40 (first peak)]		≥ 7.00	>10	≥ 6.00
[(1R,2S,4S)-4-(2-Methyl-1H-imidazo[4,5-d]thieno[3,2-b]pyridin-1-yl)-2-hydroxycyclohexyl]acetonitrile and [(1S,2R,4R)-4-(2-methyl-1H-imidazo[4,5-d]thieno[3,2-b]pyridin-1-yl)-2-hydroxycyclohexyl]acetonitrile [41 (first peak)]		≥ 7.00	>10	≥ 6.00
